# Patent publication EP2251010A1, “Use of thiabendazole and derivatives thereof for the therapy of neurological conditions” (Sygnis Bioscience GmbH & Co. KG, priority 2009, dated 2010)
# Where two headings read alike, the source gives them in different places.
# Key:
# [1] = tested on: primary cortical neurons; assay: In vitro anti-apoptosis assay (Caspase-Glo 3/7) on primary cortical neurons with staurosporine; assay type: cell-based, Wistar rat; conditions: sham 11 %
# Excerpt: (§1) Neuroprotection is attainable via the inhibition of apoptosis of affected neurons. The anti-apoptotic effect of thiabendazole and its derivatives can be assayed in vitro by measuring the caspase-3 and caspase-7 activities. These members of the cysteine aspartic acid-specific protease (caspase) family play key effector roles in apoptosis in mammalian cells. Cortical neurons have to be isolated and subsequently cultivated in a suitable culture medium. […] Parallel approaches with staurosporine alone and sham treatment of the cells serve as […]. The assay allows evaluating whether the test compound can compensate either completely or partially for the apoptotic effect of staurosporine.
# (§2) The neuroprotective effect of compounds can be assayed in vitro by measuring caspase-3 and caspase-7 activities. These members of the cysteine aspartic acid-specific protease (caspase) family play a key effector role in apoptosis in mammalian cells.
# These cells were isolated from twelve to fourteen cortices dissected from Wistar rat embryos on E18. The tissue was dissociated using 0,25 mg/ml trypsin, 0,1 mg/ml EDTA (Sigma), 100 µg/ml DNase (Roche Diagnostics Corp.) in HBSS. The digestion was stopped using 3 parts MEM-medium containing 10 % fetal calf serum, 0,45 % D-(+)glucose, 1 mM sodium-pyruvate and 0,25 µM glutamate. The cells were singularized by 10 strokes with a burnished Pasteur-pipette. After centrifugation, the cell pellet was dissolved in 10 ml medium and plated at a density of 30000 cells per well on a 96-well plate coated with poly-L-lysine for caspase-assays. […] Incubation with staurosporine (SP; 0,5 µM) alone served as positive control and incubation with vehicle (sham) served as negative control.
# [2] = tested on: SH-SY5Y cells; assay: In vitro anti-apoptosis assay (Caspase-Glo 3/7) on SH-SY5Y cells with staurosporine; assay type: cell-based, human; conditions: for degree of apoptosis relative to the staurosporine control: SH-SY5Y cells, compound 1 µM plus staurosporine 0,5 µM, sham 26 %, Fig. 5
# [3] = tested on: neural stem cells; assay: In vitro differentiation assay on adult neuronal stem cells (beta-III-tubulin promoter dual luciferase reporter); assay type: cell-based, Wistar rats
# Excerpt: The neuroregenerative effect of the compounds according to the present invention can be assayed in vitro by measuring their stimulation of the differentiation of neuronal stem cells. Therefore, adult neuronal stem cells have to be isolated and subsequently cultivated in a suitable culture medium. After several passages in vitro the stem cells have to be co-transfected with a DNA construct coding for two discriminable reporter proteins one of them under the control of a constitutive promoter and the other under the control of a beta-III-tubulin promoter. The beta-III-tubulin promoter is induced during the process of neuronal stem cell differentiation; therefore the reporter protein under the control of this promoter serves as a marker for the stem cell differentiation in such an in vitro dual reporter assay (Schneider et al., J Clin Investigation 2005; 115:2083-2098). The person skilled in the art knows several suitable constitutive promoters such as the SV40-promoter, the TK-promoter, or the CMV-promoter. As discriminable reporter proteins for such a dual reporter assay one can use discriminable luciferases such as firefly luciferase and Renilla luciferase. The transfected cells have to be incubated with the test compound and with positive and negative controls for normalization and background correction. As a positive control compound one can use retinoic acid (Guan et al., Cell Tissue Res. 2001; 305:171-176; Jacobs et al., Proc. Natl. Acad. Sci. USA 2006; 103:3902-3907), a suitable negative control is the sham treatment of the cells. The neroregenerative activity of the test compound is determined as the ratio of the signal of the beta-III-tubulin promoter controlled reporter versus the signal of the constitutively expressed reporter and is expressed as fold from the control. This assay is suitable to assess the neuroregenerative activity of thiabendazole and derivatives thereof, but also can be used to screen for other potential neuroregenerative compounds. Preferably, such a screening can be used to test compounds which are already known to be suitable as a medicament in terms of its toxicology, bioavailability, solubility, stability etc.
# In vitro differentiation assay on adult neuronal stem cells with thiabendazole Neural stem cells were isolated from the subventricular zone of 4 week-old male Wistar rats as described (Maurer et al, Proteome Sci. 2003; 1:4). Cells were cultivated in Neurobasal medium (Invitrogen) supplemented with B27 (Invitrogen), 2mM L-glutamine, 100units/ml penicillin, 100units/ml streptomycin, 20ng/ml […] (EGF), 20ng/ml fibroblast growth factor-2 (FGF-2), and 2µg/ml heparin. Once a week the neural stem cells were passaged and experiments were performed after 4 weeks in vitro. For DNA transfection, the cells were dissociated and plated on poly-L-ornithin/laminin-coated 96-well plates at a density of 50.000 cells/well. Cotransfection with the pGL3-p-βIII-tubulin vector (100ng/well) and the pRL SV40 vector (100ng/well) was carried out according to the FuGene6 Transfection protocol (Roche). The pRL SV40 vector (Promega) served as an internal control vector.
# To amplify the class III β-tubulin gene promoter (fragment -450 - +54), rat genomic DNA was used as a template for PCR (Dennis et al., Gene 2002;294:269-277). The amplified fragment was inserted into the Mlu I/Xho I site of the pGL3-Basic firefly luciferase reporter vector (Promega) to generate the pGL3-p-βIII-tubulin experimental vector.
# After overnight incubation, the plate was decanted and given in 8-fold replicates fresh medium containing thiabendazole (Sigma) or vehicle. As a positive control for in vitro differentiation, stem cells were treated by adding 1 µM retinoic acid (Sigma) to the medium missing the mitogens.
# After 48hrs, the cells were harvested to prepare the cellular extracts for luciferase assay following the directions of the manufacturer (Promega). […]
# [4] = rat; cited from earlier work
# [5] = tested on: SH-SY5Y cells; assay: In vitro anti-apoptosis assay (Caspase-Glo 3/7) on SH-SY5Y cells with staurosporine; assay type: cell-based, human; conditions: for staurosporine induced apoptosis (caspase-3 and caspase-7 activity): sham 10 %
# Excerpt: as §1, §2
# The human neuroblastoma cell-line SH-SY5Y (American Type Culture Collection) maintained in DMEM with high glucose supplemented with 20% FBS was used for the apoptosis assay. Alternatively one can analyse the apoptosis of primary cortical neurons which can be isolated from E18 rats and subsequently cultivated in suitable culture medium. 2,5 x 10^4 SH-SY5Y cells were seeded in 96-well plates and stimulated 24 h later with thiabendazole or vehicle in the presence of the apoptosis inducing compound staurosporine (0,1 µM, Calbiochem). After 5h incubation at 37 °C, caspase-Glo 3/7 reagent (Promega) containing luciferase and luminogenic substrate was added to the cells. The cleavage of the substrate by caspase-3 and caspase-7 was detected 30 min later using a luminometer (Berthold Technologies, Mithras LB 940). The Luminescence which is proportional to the amount of caspase activity serves as a measure for the apoptosis of the treated neurons. Thiabendazole was tested in a range from 0,8 µM to 100 µM final concentration.
# Incubation with staurosporine (SP; 0,5 µM) alone served as positive control and incubation with vehicle (sham) served as negative control.
# [6] = rabbit; cited from earlier work
# [7] = biological target: cytochrom P450 1A2 (CyP1A2) (Homo sapiens, UniProt P05177); conditions: cited from earlier work
# [8] = pH 7.0; cited from earlier work
# [9] = man, oral, in 48 hours; cited from earlier work
# [10] = mouse; cited from earlier work
# [11] = tested on: SH-SY5Y neuronal cells; assay: In vitro viability assay (constitutive Renilla luciferase reporter); assay type: cell-based, human; conditions: for viability of neuronal cells (Renilla luciferase activity): final concentration of 1 µM and of 10 µM, Fig. 7
# Method: The viability assay allows for further assessment of test compounds regarding their effect on cells such as neurons. Therefore, a stably transfected cell line (e.g. SH-SY5Y cells) with a reporter construct (e.g. a luciferase construct) has to be incubated with the test compound and in parallel with positive and negative controls (e.g. staurosporine and sham, respectively). Subsequently, the signal generated by the reporter construct serves as a readout for the viability of the cells in the presence of the test compound. The assay enables the evaluation of potential neurotoxic effects of the test compound itself.
# The effect of a compound on the viability of neuronal cells can be assayed in vitro by measuring the survival of neuronal cells transfected with a reporter construct under a constitutive promoter. SH-SY5Y neuronal cells stably transfected with a Renilla luciferase construct under the SV40 promoter were seeded in 96-well plates at a density of 2,5 x 10^4 cells per well. Following overnight incubation the cells were stimulated with medium containing thiabendazole or vehicle. Staurosporine (0,5 µM) served as positive control. The Renilla luciferase activity was measured 5 h later using a luminometer (Berthold Technologies, Mithras LB 940). Thiabendazole was tested in a range from 0,8 µM to 50 µM final concentration.
# Analogously, thiabendazole (A; Sigma) and various derivatives thereof (2-(1,3-thiazol-5-yl)-benzimidazole (B; ChemBridge Corporation), 4-(benzimidazol-2-yl)-1,3-thiazol-2-amine (C; ChemBridge Corporation), 2-(2-thienyl)-benzimidazole (D; ChemBridge Corporation), or 2-(1,3-thiazol-4-yl)-benzimidazole-5-ol (E; Witega GmbH), Fig. 8) have been analysed for their effect on the viability of neuronal cells. The compounds were tested in a final concentration of 1 µM and of 10 µM.
# [12] = compound 1 µM plus staurosporine 0,5 µM, Fig. 6
# [13] = final concentrations of 1 µM and 10 µM, Fig. 4
# Sequence of cytochrom P450 1A2 (CyP1A2) (P05177 whole entry, species assumed): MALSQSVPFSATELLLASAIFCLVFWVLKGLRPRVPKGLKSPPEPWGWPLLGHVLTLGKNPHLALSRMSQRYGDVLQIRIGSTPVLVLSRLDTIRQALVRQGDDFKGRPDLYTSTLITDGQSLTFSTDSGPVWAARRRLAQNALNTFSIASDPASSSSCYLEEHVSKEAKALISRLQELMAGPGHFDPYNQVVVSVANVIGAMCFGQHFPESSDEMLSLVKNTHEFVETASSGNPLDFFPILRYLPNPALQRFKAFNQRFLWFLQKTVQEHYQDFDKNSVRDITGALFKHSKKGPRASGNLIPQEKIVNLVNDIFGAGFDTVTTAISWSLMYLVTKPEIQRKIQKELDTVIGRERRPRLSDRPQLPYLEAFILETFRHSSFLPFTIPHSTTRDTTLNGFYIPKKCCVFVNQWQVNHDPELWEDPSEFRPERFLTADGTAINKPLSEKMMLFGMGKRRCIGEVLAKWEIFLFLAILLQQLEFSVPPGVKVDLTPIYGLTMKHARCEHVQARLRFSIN
compound,measurement,setting,value
"Oc1ccc2nc(-c3cscn3)[nH]c2c1 [E, 2-(1,3-thiazol-4-yl)-benzimidazole-5-ol]",degree of apoptosis relative to the staurosporine control,[1]; [12],60%
same,degree of apoptosis relative to the staurosporine control,[2],83%
same,differentiation of neural stem cells to neurons (relative induction of the class III β-tubulin gene promoter controlled luciferase signal),[3]; [13],significantly stimulate the differentiation of neural stem cells to neurons
"c1ccc2[nH]c(-c3cscn3)nc2c1 [thiabendazole, 2-(4-thiazolyl)-benzimidazole]",degree of apoptosis relative to the staurosporine control,[1]; [12],58%
same,oral LD 50,[4],"3,1 g/kg"
same,staurosporine induced apoptosis (caspase-3 and caspase-7 activity),"[5]; 0,8 µM thiabendazole plus 0,1 µM staurosporine, 5h, staurosporine alone = 100 %",60%
same,staurosporine induced apoptosis (caspase-3 and caspase-7 activity),"[5]; 25 µM thiabendazole plus 0,1 µM staurosporine, 5h, staurosporine alone = 100 %",10%
same,staurosporine induced apoptosis (caspase-3 and caspase-7 activity),"[5]; 50 µM thiabendazole plus 0,1 µM staurosporine, 5h, staurosporine alone = 100 %",4%
same,staurosporine induced apoptosis (caspase-3 and caspase-7 activity),"[5]; 100 µM thiabendazole plus 0,1 µM staurosporine, 5h, staurosporine alone = 100 %",3%
same,staurosporine induced apoptosis (caspase-3 and caspase-7 activity),"[5]; 1,6 µM thiabendazole plus 0,1 µM staurosporine, 5h, staurosporine alone = 100 %",59%
same,staurosporine induced apoptosis (caspase-3 and caspase-7 activity),"[5]; 3,1 µM thiabendazole plus 0,1 µM staurosporine, 5h, staurosporine alone = 100 %",44%
same,staurosporine induced apoptosis (caspase-3 and caspase-7 activity),"[5]; 6,3 µM thiabendazole plus 0,1 µM staurosporine, 5h, staurosporine alone = 100 %",28%
same,staurosporine induced apoptosis (caspase-3 and caspase-7 activity),"[5]; 12,5 µM thiabendazole plus 0,1 µM staurosporine, 5h, staurosporine alone = 100 %",19%
same,oral LD 50,[6],"3,8 g/kg"
same,degree of apoptosis relative to the staurosporine control,[2],68%
same,apoptotic effect by themselves,[2]; compound without staurosporine,Neither thiabendazole nor derivatives thereof exhibited an apoptotic effect by themselves
same,inhibitor of cytochrom P450 1A2 (CyP1A2),[7],potent inhibitor
same,solubility in water,[8],approximately 50 mg/l
same,administered dose recovered from the feces,[9],about 5%
same,administered dose recovered from the urine,[9],about 90%
same,oral LD 50,[10],"3,6 g/kg"
same,differentiation of neural stem cells to neurons (relative induction of the class III β-tubulin gene promoter controlled luciferase signal),"[3]; 0,2 to 100 µM final concentration, 48hrs, Fig. 1",significantly stimulates the differentiation of neural stem cells to neurons
same,differentiation of neural stem cells to neurons (relative induction of the class III β-tubulin gene promoter controlled luciferase signal),[3]; [13],significantly stimulate the differentiation of neural stem cells to neurons
same,viability of the neuronal cells (Renilla luciferase activity),"[11]; 0,8 µM to 50 µM final concentration, 5 h, Fig. 3",did not show any significant effect on the viability
same,viability of neuronal cells (Renilla luciferase activity),[11],did not show any significantly reduced viability
"c1csc(-c2nc3ccccc3[nH]2)c1 [D, 2-(2-thienyl)-benzimidazole]",degree of apoptosis relative to the staurosporine control,[1]; [12],49%
same,degree of apoptosis relative to the staurosporine control,[2],65%
same,differentiation of neural stem cells to neurons (relative induction of the class III β-tubulin gene promoter controlled luciferase signal),[3]; [13],significantly stimulate the differentiation of neural stem cells to neurons
"c1ccc2[nH]c(-c3cncs3)nc2c1 [B, 2-(1,3-thiazol-5-yl)-benzimidazole]",degree of apoptosis relative to the staurosporine control,[1]; [12],55%
same,degree of apoptosis relative to the staurosporine control,[2],65%
same,differentiation of neural stem cells to neurons (relative induction of the class III β-tubulin gene promoter controlled luciferase signal),[3]; [13],significantly stimulate the differentiation of neural stem cells to neurons
CN[C@@H]1C[C@H]2O[C@@](C)([C@@H]1OC)n1c3ccccc3c3c4c(c5c6ccccc6n2c5c31)C(=O)NC4 [staurosporine],degree of apoptosis relative to the staurosporine control,"[1]; staurosporine 0,5 µM alone (positive control)",100%
same,staurosporine induced apoptosis (caspase-3 and caspase-7 activity),"[5]; 0,1 µM staurosporine alone (reference, set to 100 %)",100%
same,degree of apoptosis relative to the staurosporine control,"[5]; SH-SY5Y cells, staurosporine 0,5 µM alone (positive control), sham 26 %",100%
"Nc1nc(-c2nc3ccccc3[nH]2)cs1 [C, 4-(benzimidazol-2-yl)-1,3-thiazol-2-amine]",degree of apoptosis relative to the staurosporine control,[1]; [12],52%
same,degree of apoptosis relative to the staurosporine control,[2],46%
same,differentiation of neural stem cells to neurons (relative induction of the class III β-tubulin gene promoter controlled luciferase signal),[3]; [13],significantly stimulate the differentiation of neural stem cells to neurons
same,viability of neuronal cells (Renilla luciferase activity),[11],did not show any significantly reduced viability
